The source made the active and inactive calls. No cut-off for these calls is given here.

The nature of experiment [1]: Inhibition of tyrosine-protein kinase pp60v-src.
Experiment [2] is described as follows: Inhibition of matrix metalloprotease.
The target of experiment [3] is GMP synthase [glutamine-hydrolyzing] (Homo sapiens) (UniProt P49915). Kind of experiment: Inhibition of GMPS in human A3.01 cells at 50 uM. It counts as cell-based.
Experiment [4] in a line: Inhibition of inosine monophosphate dehydrogenase. Also noted: unit not given here.
Experiment [5] addresses T1, Polyunsaturated fatty acid lipoxygenase ALOX15 (Homo sapiens, UniProt P16050).
T1 sequence (P16050 whole entry): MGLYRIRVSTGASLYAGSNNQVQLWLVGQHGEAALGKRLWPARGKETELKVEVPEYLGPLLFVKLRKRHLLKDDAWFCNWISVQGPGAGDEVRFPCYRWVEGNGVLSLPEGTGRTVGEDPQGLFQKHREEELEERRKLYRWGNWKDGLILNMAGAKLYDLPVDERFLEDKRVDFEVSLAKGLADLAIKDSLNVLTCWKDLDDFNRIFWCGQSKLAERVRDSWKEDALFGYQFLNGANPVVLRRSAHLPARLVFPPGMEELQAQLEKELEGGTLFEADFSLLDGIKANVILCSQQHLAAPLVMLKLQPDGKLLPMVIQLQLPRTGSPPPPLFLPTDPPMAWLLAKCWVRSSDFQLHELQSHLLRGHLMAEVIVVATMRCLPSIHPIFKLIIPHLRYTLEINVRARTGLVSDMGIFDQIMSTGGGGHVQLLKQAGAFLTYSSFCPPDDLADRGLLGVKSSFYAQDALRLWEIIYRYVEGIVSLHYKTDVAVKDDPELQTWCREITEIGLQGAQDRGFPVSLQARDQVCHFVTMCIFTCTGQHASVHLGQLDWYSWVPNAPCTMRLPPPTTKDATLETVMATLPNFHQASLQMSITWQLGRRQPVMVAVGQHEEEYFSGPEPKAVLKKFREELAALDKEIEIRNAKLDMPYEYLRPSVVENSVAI
Description: Inhibition of 15-lipoxygenase.

The target in experiment [6] is T2, Polyunsaturated fatty acid lipoxygenase ALOX15 (Homo sapiens) (UniProt P16050).
T2 sequence (whole entry): T1 sequence (P16050 whole entry)
Kind of experiment: Inhibition of 15-lipoxygenase at 40 ug/ml. The settings on record: at 40 µg/mL.

Experiment [7] is described as follows: Inhibition of PKC.

GMP synthase [glutamine-hydrolyzing] (Homo sapiens), sequence (P49915 whole entry): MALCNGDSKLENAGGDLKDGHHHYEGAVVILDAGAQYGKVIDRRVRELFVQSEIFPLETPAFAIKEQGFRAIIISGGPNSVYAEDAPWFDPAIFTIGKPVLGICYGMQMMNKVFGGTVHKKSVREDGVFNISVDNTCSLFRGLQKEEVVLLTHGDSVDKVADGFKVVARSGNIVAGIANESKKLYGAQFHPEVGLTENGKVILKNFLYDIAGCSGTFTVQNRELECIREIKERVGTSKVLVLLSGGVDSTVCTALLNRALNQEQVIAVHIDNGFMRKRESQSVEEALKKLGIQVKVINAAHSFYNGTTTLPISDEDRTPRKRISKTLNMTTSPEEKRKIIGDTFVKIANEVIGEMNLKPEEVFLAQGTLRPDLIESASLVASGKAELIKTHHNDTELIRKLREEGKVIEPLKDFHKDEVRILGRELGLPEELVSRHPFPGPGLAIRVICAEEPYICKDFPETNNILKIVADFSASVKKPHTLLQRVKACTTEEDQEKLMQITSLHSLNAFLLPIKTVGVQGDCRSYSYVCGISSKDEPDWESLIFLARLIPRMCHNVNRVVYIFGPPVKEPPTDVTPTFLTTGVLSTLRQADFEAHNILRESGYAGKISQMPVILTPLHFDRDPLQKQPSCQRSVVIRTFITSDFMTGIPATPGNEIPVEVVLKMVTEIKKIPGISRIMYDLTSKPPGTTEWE

On to `COc1c(Br)cc(Br)cc1Oc1c(O)cc(Br)cc1Br`, for which, in experiment [1], the result was inactive.

Regarding `COc1cc(Br)cc(Br)c1Oc1cc(Br)cc(Br)c1O`, in experiment [1], the result was inactive.

As to `Oc1cc(Br)c(Br)c(Br)c1Oc1cc(Br)cc(Br)c1O`, the result in experiment [1] and in experiment [2] was inactive. This molecule came in with an inhibition in experiment [3] of 89%.

Consider `Oc1cc(Br)c(Br)c(Br)c1Oc1ccc(Br)cc1Br`, for which the EC50 in experiment [4] turned out to be 4. For the same molecule, the outcome in experiment [1] and in experiment [2] was inactive. Besides, the inhibition in experiment [3] was 99%. The molecule further gave an IC50 in experiment [5] of 7.4 µM.

`Oc1c(Br)cc(Br)cc1Oc1ccc(Br)cc1Br`: the result in experiment [1] was inactive.

Molecule `Oc1c(Br)cc(Br)cc1Oc1c(Br)cc(Br)c(Br)c1O` had an EC50 in experiment [4] of 7.8. Besides, the result in experiment [1] and in experiment [2] was inactive. The molecule also displayed an inhibition in experiment [3] of 70%. Further, the IC50 in experiment [5] came out at 2.5 µM.

As to `Oc1cc(Br)cc(Br)c1Oc1c(O)cc(Br)c(Br)c1Br`, the inhibition in experiment [6] stood at 100%.

With `Oc1c(Br)cc(Br)cc1Oc1c(O)c(Br)c(Br)c(Br)c1Br`, the outcome in experiment [7], in experiment [1] and in experiment [2] was inactive. In experiment [4], this molecule displayed an EC50 of 2.79. In addition, the inhibition in experiment [3] stood at 96%. In experiment [5], this molecule yielded an IC50 of 1.3 µM.

`Oc1c(Oc2ccc(Br)cc2Br)cc(Br)c(Br)c1Br` came in with an EC50 in experiment [4] of 4.4. The outcome in experiment [1] and in experiment [2] was inactive. Further, the inhibition in experiment [3] is 71%. The molecule also had an IC50 in experiment [5] of 7.4 µM.

The molecule `Oc1cc(Br)cc(Br)c1Oc1ccc(Br)cc1Br` came in with an EC50 in experiment [4] of 5.71. For the same molecule, the result in experiment [1] and in experiment [2] was inactive. In experiment [3], this molecule had an inhibition of 56%.

One may read the inhibition as the relative decrease from the control value, in per cent. In general, IC50 refers to the concentration needed to halve the response being measured.

Values taken from ChEMBL document CHEMBL1159289, “Enzyme inhibitors: new and known polybrominated phenols and diphenyl ethers from four Indo-Pacific Dysidea sponges” (J Nat Prod, 1995).
